Here are results for 17 compounds from EP4700021A1, “NOVEL COMPOUND AND PHARMACEUTICAL COMPOSITION COMPRISING SAME AS ACTIVE INGREDIENT” (Sapiensbio Inc., priority 2023, dated 2025).

The structures appear in SMILES notation. Where a name gives a salt, the structure may show the parent alone.

Assay [1] has as its system α-SMA. Nature of the assay: in vitro α-SMA expression inhibition (immunostaining, confocal microscopy) in TGF-β1-treated MRC-5 cells. It is filed as cell-based, human. The settings on record: Homo sapiens, TGF-β1 (5 ng/mL), 72 hours, standardized using GAPDH. From the text:
When scars are generated in tissue, fibroblasts undergo fibroblast-to-myofibroblast transition (FMT), and the resulting myofibroblasts produce the extracellular matrix, leading to tissue fibrosis. α-SMA is a representative biomarker of myofibroblasts, and its expression greatly increases as FMT progresses. Accordingly, through the evaluation of α-SMA expression inhibitory activity, the efficacy of the compounds in inhibiting fibrosis may be evaluated. Therefore, the inhibitory activity of the compounds of the present invention on α-SMA expression was evaluated in cells. To more accurately evaluate the inhibition of α-SMA expression, IC50 values were determined by treating human lung-derived fibroblasts (MRC-5 cells) with the compounds of the present invention in a concentration-dependent manner.
Specifically, 2 hours after the MRC-5 cells were treated with DMSO or compounds dissolved in serum containing 0.5% fetal bovine serum (FBS) in a concentration-dependent manner, fibrosis was induced by treatment with TGF-β1 (5 ng/mL). After 72 hours, the cells were immobilized with a 2% paraformaldehyde solution for 10 minutes, and to impart cell membrane permeability, a 0.1% Triton X-100 solution was treated for 10 minutes, and a 1% bovine serum albumin (BSA) solution was treated to prevent non-specific binding. For immunostaining, anti-GAPDH (BIO-RAD) was first treated as a primary antibody, and Alexa Fluor™ Plus 555 for GAPDH labeling was used as a secondary antibody. For α-SMA staining, an FITC fluorescence-tagged α-SMA primary antibody was used, and thus the increase and decrease in α-SMA caused by the compounds were evaluated. The immunohistochemical experimental results were confirmed with a STELLARIS 5 confocal microscope (Leica), and FITC-stained α-SMA was standardized using GAPDH labeled with Alexa FluorTM Plus 555 for quantification. The IC50 of the compounds according to the present invention was calculated through statistical analysis (linear mixed effects model). […]

The subject of assay [2] is F-actin. Nature of the assay: inhibition of F-actin formation (rhodamine phalloidin staining) in TGF-β1-treated MRC-5 cells. It is filed as cell-based, human. The settings on record: compound 10 µM, TGF-β1 (5 ng/mL), 72 hours, FIG. 1. The method, then:
In this experimental example, 2 hours after human lung-derived fibroblasts (MRC-5 cells) were treated with Compound 41 (10 µM) or Compound 51 (10 µM) according to the present invention, or DMSO, dissolved in 0.5% FBS-containing serum, TGF-β1 (5 ng/mL) was treated to induce fibrosis. After 72 hours, the cells were immobilized with a 2% paraformaldehyde solution for 10 minutes, and to impart cell membrane permeability, a 0.1% Triton X-100 solution was treated for 10 minutes, and a 1% bovine serum albumin (BSA) solution was treated to prevent non-specific binding. For immunostaining, anti-GAPDH (BIO-RAD) was first treated as a primary antibody, and Alexa Fluor™ Plus 488 for GAPDH labeling was used as a secondary antibody. For staining of an actin cytoskeleton, particularly, F-actin, rhodamine phalloidin (Cytoskeleton) was used to confirm the increase and decrease in F-actin caused by the compounds. The immunohistochemical experimental results were confirmed with a STELLARIS 5 confocal microscope (Leica), F-actin stained with rhodamine phalloidin was standardized with GAPDH labeled with Alexa Fluor™ Plus 488 for quantification.

The test system of assay [3] is ACTA2 mRNA. Nature of the assay: qRT-PCR of ACTA2 mRNA in TGF-β1-treated human hepatic stellate cells. It is filed as cell-based. Conditions: human hepatic stellate cells (HHSCs); 10 and 50 µM; TGF-β1 (5 ng/mL); 48 hours; FIG. 2. The method, then: Here, to confirm the degree of fibrosis, ACTA2 or COL1A1 mRNA that can express α-SMA or collagen type 1 was used as an indicator. α-SMA is a marker of activated myofibroblasts, which are the main effector cells of fibrosis, and myofibroblasts with increased α-SMA expression are known to cause fibrosis by producing a fibrotic protein such as COL1A1.
Specifically, human hepatic stellate cells (HHSCs) were seeded, and cultured for 24 hours under a nutrient-deficient condition for effective cell activation. Afterward, the cells were treated with the compounds (Compounds 51 and 41) according to the present invention, together with TGF-β1 (5 ng/mL) to induce fibrosis, at 10 and 50 µM for 48 hours, respectively, and then cultured to extract RNA therefrom. The RNA was used to perform qRT-PCR. From the experimental results, the mRNA expression levels of ACTA2 and COL1A1 were confirmed, thereby verifying the therapeutic effects of the compounds.
Background: Real-time PCR tracks product formation cycle by cycle.

The subject of assay [4] is ACTA2 mRNA. Nature of the assay: qRT-PCR of ACTA2 mRNA in TGF-β1-treated human renal fibroblasts. It is filed as cell-based. Conditions: human renal fibroblasts (HRFs); 10 and 50 µM; TGF-β1 (5 ng/mL); 48 hours; FIG. 3. The method, then:
(§1) Here, to confirm the degree of fibrosis, ACTA2 or COL1A1 mRNA, which can express α-SMA or collagen type 1, was used as an indicator. α-SMA is a marker for activated myofibroblasts, which are the main effector cells of fibrosis, and myofibroblasts with increased α-SMA expression are known to cause fibrosis by producing a fibrotic protein such as collagen type 1.
(§2) Specifically, human renal fibroblasts (HRFs) were seeded, and cultured for 24 hours under a nutrient-deficient condition for effective cell activation. Afterward, the cells were treated with the compounds (Compounds 51 and 41) according to the present invention, together with TGF-β1 (5 ng/mL) to induce fibrosis, at 10 and 50 µM for 48 hours, respectively, and then cultured to extract RNA therefrom. The RNA was used to perform qRT-PCR. From the experimental results, the mRNA expression levels of ACTA2 and COL1A1 were confirmed, thereby verifying the therapeutic effects of the compounds.

Assay [5] deals with COL1A1 mRNA. Nature of the assay: qRT-PCR of COL1A1 mRNA in TGF-β1-treated human renal fibroblasts. Conditions: human renal fibroblasts (HRFs); 10 and 50 µM; TGF-β1 (5 ng/mL); 48 hours; FIG. 3. It is filed as cell-based. As to the method:
as §1, §2

Consider `N[C@H]1CCN(C(=O)N2CCN(Cc3ccc(F)cc3)c3ccccc32)C1.O=C(O)/C=C/C(=O)O` [Compound 41, (S)-(3-aminopyrrolidin-1-yl)(4-(4-fluorobenzyl)-3,4-dihydroquinoxaline-1(2H)-yl)methanone fumaric acid salt], for which the IC50 (commonly the concentration that inhibits the measured activity by half) in assay [1] is under 1000 nM. The “intracellular F-actin formation” value in assay [2] was “reduced to a level similar to that of the group not treated with TGF-β1”. For the same compound, the “ACTA2 mRNA expression” value in assay [3] and in assay [4] was “effectively inhibit the mRNA expression” each time. The “COL1A1 mRNA expression” value in assay [5] is listed as “effectively inhibit the mRNA expression”. In assay [1], `O=C(NCC1CCNCC1)N1CCN(Cc2ccc(F)cn2)c2ccccc21` [Compound 66, 4-((5-fluoropyridine-2-yl)methyl)-N-(piperidin-4-ylmethyl)-3,4-dihydroquinoxaline-1(2H)-carboxamide oxalic acid salt] yielded a 50% inhibitory concentration (IC50) of under 1000 nM. Same read-out and setting: the result for `CC(C)N[C@H]1CCN(C(=O)N2CCN(Cc3ccc(F)cc3)c3ccccc32)C1` [Compound 42, (S)-(4-(4-fluorobenzyl)-3,4-dihydroquinoxaline-1(2H)-yl)(3-(isopropylamino)pyrrolidin-1-yl)methanone] reads 1000 to 10000 nM. In assay [1], `CC(C)CN[C@H]1CCN(C(=O)N2CCN(Cc3ccccn3)c3ccccc32)C1.O=C(O)/C=C/C(=O)O` [Compound 51, (S)-(3-(isobutylamino)pyrrolidin-1-yl)(4-(pyridin-2-ylmethyl)-3,4-dihydroquinoxaline-1(2H)-yl)methanone fumaric acid salt] came in with an IC50 of under 1000 nM. The “intracellular F-actin formation” value in assay [2] is listed as “reduced to a level similar to that of the group not treated with TGF-β1”. Besides, the “ACTA2 mRNA expression” value in assay [3] and in assay [4] was “effectively inhibit the mRNA expression” throughout. The “COL1A1 mRNA expression” value in assay [5] is given as “effectively inhibit the mRNA expression”.

In turn, `CC(C)N[C@H]1CCN(C(=O)N2CCN(Cc3ccccn3)c3ccccc32)C1` [Compound 47, (S)-(3-(isopropylamino)pyrrolidin-1-yl)(4-(pyridin-2-ylmethyl)-3,4-dihydroquinoxaline-1(2H)-yl)methanone] registered an IC50 in assay [1] of at most 30000 nM. Same read-out and setting: the result for `O=C(NCC1CCOC1)N1CCN(Cc2ccccn2)c2ccccc21` (stereo not shown) [Compound 58, 4-(pyridin-2-ylmethyl)-N-((tetrahydrofuran-3-yl)methyl)-3,4-dihydroquinoxaline-1(2H)-carboxamide] reads under 1000 nM; that for `O=C(NC1CCNCC1)N1CCN(Cc2ccccn2)c2ccccc21` [Compound 53, N-(piperidin-4-yl)-4-(pyridin-2-ylmethyl)-3,4-dihydroquinoxaline-1(2H)-carboxamide], 1000 to 10000 nM.

In assay [1], `N[C@H]1CCN(C(=O)N2CCN(c3ccccn3)c3ccccc32)C1` [Compound 12, (S)-(3-aminopyrrolidin-1-yl)(4-(pyridin-2-yl)-3,4-dihydroquinoxaline-1(2H)-yl)methanone] displayed a half-inhibitory concentration (IC50) of at most 30000 nM. Still for that read-out and setting: the result for `CN(C)[C@H]1CCN(C(=O)N2CCN(Cc3ccccn3)c3ccccc32)C1` [Compound 46, (S)-(3-(dimethylamino)pyrrolidin-1-yl)(4-(pyridin-2-ylmethyl)-3,4-dihydroquinoxaline-1(2H)-yl)methanone] reads at most 30000 nM; that for `O=C(N1CCCC1)N1CCN(c2ccccc2Cl)c2ccccc21` [Compound 8, (4-(2-chlorophenyl)-3,4-dihydroquinoxaline-1(2H)-yl)(pyrrolidin-1-yl)methanone], 10000 to 30000 nM.

As for `CC(C)(C)CC(=O)N1CCN(C(=O)NCC2CCNCC2)c2ccccc21` [Compound 79, 4-(3,3-dimethylbutanoyl)-N-(piperidin-4-ylmethyl)-3,4-dihydroquinoxaline-1(2H)-carboxamide], the IC50 in assay [1] was at most 30000 nM. For `O=C(N1CCNCC1)N1CCN(c2ccccc2Cl)c2ccccc21` [Compound 10, (4-(2-chlorophenyl)-3,4-dihydroquinoxaline-1(2H)-yl)(piperazin-1-yl)methanone], in assay [1], the 50% inhibitory concentration (IC50) was under 1000 nM. On the same count and under the same terms, the result for `CN1CC[C@@H](COC(=O)N2CCN(Cc3ccccn3)c3ccccc32)C1` [Compound 64, (R)-(1-methylpyrrolidin-3-yl)methyl-4-(pyridin-2-ylmethyl)-3,4-dihydroquinoxaline-1(2H)-carboxylate] reads under 1000 nM. On the same count and under the same terms, the result for `O=C(NC[C@H]1CCCN1)N1CCN(c2ccccn2)c2ccccc21` [Compound 15, (R)-4-(pyridin-2-yl)-N-(pyrrolidin-2-ylmethyl)-3,4-dihydroquinoxaline-1(2H)-carboxamide] reads under 1000 nM; that for `O=C(NC[C@@H]1CCNC1)N1CCN(c2ccccn2)c2ccccc21` [Compound 14, (R)-4-(pyridin-2-yl)-N-(pyrrolidin-3-ylmethyl)-3,4-dihydroquinoxaline-1(2H)-carboxamide], 1000 to 10000 nM; that for `O=C(N1CCCCC1)N1CCN(C2CCCCC2)c2ccccc21` [Compound 71], 1000 to 10000 nM. The same measure, in the same setting: the result for `O=C(NC1CCNCC1)N1CCN(c2ccccn2)c2ccccc21` [Compound 13, N-(piperidin-4-yl)-4-(pyridin-2-yl)-3,4-dihydroquinoxaline-1(2H)-carboxamide] reads 1000 to 10000 nM.
